Measurements reported in patent US11535594B2, “Microbiocidal picolinamide derivatives” (Syngenta Participations AG, priority 2017, dated 2022).

How the values were obtained:
[1] = tested on: Monographella nivalis (Microdochium nivale); experiment: Monographella nivalis (Microdochium nivale) / liquid culture (foot rot cereals); type: cell-based; details: PDB potato dextrose broth, 24° C., 4-5 days after application, compared to untreated checks, read-out: disease control (inhibition of growth, photometric)
Experimental: (§1) Monographella nivalis (Microdochium nivale)/Liquid Culture (Foot Rot Cereals) Conidia of the fungus from cryogenic storage are directly mixed into nutrient broth (PDB potato dextrose broth). After placing a (DMSO) solution of test compound into a microtiter plate (96-well format), the nutrient broth containing the fungal spores is added. The test plates are incubated at 24° C. and the inhibition of growth is determined photometrically 4-5 days after application.

[2] = tested on: Mycosphaerella Graminicola (Septoria tritici); experiment: Mycosphaerella graminicola (Septoria tritici) / liquid culture (Septoria blotch); type: cell-based; details: Zymoseptoria tritici, PDB potato dextrose broth, 24° C., 4 to 5 days after application, compared to untreated checks, read-out: disease control (inhibition of growth, photometric)
Experimental: as §1, with “Mycosphaerella Graminicola (Septoria tritici)/Liquid” for “Monographella nivalis (Microdochium nivale)/Liquid”, “(Septoria Blotch)” for “(Foot Rot Cereals)”, “4 to 5” for “4-5”

[3] = tested on: Puccinia Recondite f. Sp. Tritici; experiment: Puccinia recondita f. sp. tritici / wheat / leaf disc preventative (brown rust); type: in vivo; details: foliar, wheat leaf segments cv. Kanzler, inoculated 1 day after application, assessed 7-9 days after application, compared to untreated, read-out: disease control
Experimental: Puccinia Recondite f. Sp. Tritici/Wheat/Leaf Disc Preventative (Brown Rust) Wheat leaf segments cv. Kanzler are placed on agar in multiwell plates (24-well format) and sprayed with the formulated test compound diluted in water. The leaf disks are inoculated with a spore suspension of the fungus 1 day after application. The inoculated leaf segments are incubated at 19° C. and 75% rh under a light regime of 12 h light/12 h darkness in a climate cabinet and the activity of a compound is assessed as percent disease control compared to untreated when an appropriate level of disease damage appears in untreated check leaf segments (7-9 days after application).

[4] = tested on: Mycosphaerella arachidis (Cercospora arachidicola); experiment: Mycosphaerella arachidis (Cercospora arachidicola) / liquid culture (early leaf spot); type: cell-based; details: PDB potato dextrose broth, 24° C., 4-5 days after application, compared to untreated checks, read-out: disease control (inhibition of growth, photometric)
Experimental: as §1, with “Mycosphaerella arachidis (Cercospora arachidicola)/Liquid” for “Monographella nivalis (Microdochium nivale)/Liquid”, “(Early Leaf Spot)” for “(Foot Rot Cereals)”

[5] = tested on: Phaeosphaeria nodorum (Septoria nodorum); experiment: Phaeosphaeria nodorum (Septoria nodorum) / wheat / leaf disc preventative (glume blotch); type: in vivo; details: Parastagonospora nodorum, foliar, 120 h, wheat leaf segments cv. Kanzler, inoculated 2 days after application, assessed 5-7 days after application, compared to untreated, read-out: disease control
Experimental: Phaeosphaeria nodorum (Septoria nodorum)/Wheat/Leaf Disc Preventative (Glume Blotch) Wheat leaf segments cv. Kanzler are placed on agar in a multiwell plate (24-well format) and sprayed with the formulated test compound diluted in water. The leaf disks are inoculated with a spore suspension of the fungus 2 days after application. The inoculated test leaf disks are incubated at 20° C. and 75% rh under a light regime of 12 h light/12 h darkness in a climate cabinet and the activity of a compound is assessed as percent disease control compared to untreated when an appropriate level of disease damage appears in untreated check leaf disks (5-7 days after application).

[6] = tested on: Glomerella Lagenarium (Colletotrichum lagenarium); experiment: Glomerella lagenarium (Colletotrichum lagenarium) / liquid culture (anthracnose); type: cell-based; details: Colletotrichum orbiculare, PDB potato dextrose broth, 24° C., 3 to 4 days after application, compared to untreated checks, read-out: disease control (inhibition of growth, photometric)
Experimental: as §1, with “Glomerella Lagenarium (Colletotrichum lagenarium)/Liquid” for “Monographella nivalis (Microdochium nivale)/Liquid”, “(Anthracnose)” for “(Foot Rot Cereals)”, “measured” for “determined”, “3 to 4” for “4-5”

Row | SMILES | inhibition at 200 ppm [1] | inhibition at 200 ppm [2] | pest or weed control at 200 ppm [3] | inhibition at 200 ppm [4] | pest or weed control at 200 ppm [5] | inhibition at 200 ppm [6]
1 | COc1ccnc(C(=O)N[C@@H](C)C(=O)ON(C)C(c2ccc(C(C)(C)C)cc2)c2ccc(C(C)(C)C)cc2)c1O [I.aa.01, [bis(4-tert-butylphenyl)methyl-methyl-amino] (2S)-2-[(3-hydroxy-4-methoxy-pyridine-2-carbonyl)amino]propanoate] | ≥ 80% | ≥ 80% |  |  |  | 
2 | COc1ccnc(C(=O)N[C@@H](C)C(=O)ON(C)C(c2ccccc2)C(C)C)c1O (stereo partly drawn) [I.d.01, [methyl-(2-methyl-1-phenyl-propyl)amino] (2S)-2-[(3-hydroxy-4-methoxy-pyridine-2-carbonyl)amino] propanoate] |  | ≥ 80% | ≥ 80% | ≥ 80% |  | 
3 | COc1ccnc(C(=O)N[C@@H](C)C(=O)ON(C)C(c2ccccc2)C2CC2)c1O (stereo partly drawn) [I.e.01, [[cyclopropyl(phenyl)methyl]-methyl-amino] (2S)-2-[(3-hydroxy-4-methoxy-pyridine-2-carbonyl)amino] propanoate] |  | ≥ 80% |  |  | ≥ 80% | 
4 | COc1ccnc(C(=O)N[C@@H](C)C(=O)ON(C)C(c2ccc3ccccc3c2)C2CC2)c1O (stereo partly drawn) [I.g.01, [[cyclopropyl(2-naphthyl)methyl]-methyl-amino] (2S)-2-[(3-hydroxy-4-methoxy-pyridine-2-carbonyl)amino] propanoate] |  |  |  |  | ≥ 80% | 
5 | COc1ccnc(C(=O)N[C@@H](C)C(=O)ON(C)C(c2ccccc2)C2CCCCC2)c1O (stereo partly drawn) [I.j.01, [[cyclohexyl(phenyl)methyl]-methyl-amino] (2S)-2-[(3-hydroxy-4-methoxy-pyridine-2-carbonyl)amino] propanoate] |  |  |  |  | ≥ 80% | 
6 | COc1ccnc(C(=O)N[C@@H](C)C(=O)ON(C)C(c2ccccc2)c2ccc(Cl)cc2)c1O (stereo partly drawn) [I.o.01, [[(4-chlorophenyl)-phenyl-methyl]-methyl-amino] (2S)-2-[(3-hydroxy-4-methoxy-pyridine-2-carbonyl)amino]propanoate] |  | ≥ 80% | ≥ 80% | ≥ 80% | ≥ 80% | ≥ 80%
7 | COc1ccnc(C(=O)N[C@@H](C)C(=O)ON(C)C(c2ccccc2)c2ccc3ccccc3c2)c1O (stereo partly drawn) [I.r.01, [methyl-[2-naphthyl(phenyl)methyl]amino] (2S)-2-[(3-hydroxy-4-methoxy-pyridine-2-carbonyl)amino] propanoate] |  |  |  |  | ≥ 80% | 
8 | COc1ccnc(C(=O)N[C@@H](C)C(=O)ON(C)C(c2ccc(F)cc2)c2ccc(F)cc2)c1OC(C)=O [I.s.13, [bis(4-fluorophenyl)methyl-methyl-amino] (2S)-2-[(3-acetoxy-4-methoxy-pyridine-2-carbonyl)amino]propanoate] |  | ≥ 80% | ≥ 80% | ≥ 80% | ≥ 80% | 
9 | COc1ccnc(C(=O)N[C@@H](C)C(=O)ON(C)C(C)(c2ccc(F)cc2)c2ccc(Cl)cc2)c1O (stereo partly drawn) [I.t.02, [[1-(4-chlorophenyl)-1-(4-fluorophenyl)ethyl]-methyl-amino] (2S)-2-[(3-hydroxy-4-methoxy-pyridine-2-carbonyl)amino]propanoate] | ≥ 80% | ≥ 80% | ≥ 80% | ≥ 80% |  | ≥ 80%
10 | CCC(c1ccc(Cl)cc1)(c1ccc(Cl)cc1)N(C)OC(=O)[C@H](C)NC(=O)c1nccc(OC)c1O [I.u.03, [1,1-bis(4-chlorophenyl)propyl-methyl-amino] (2S)-2-[(3-hydroxy-4-methoxy-pyridine-2-carbonyl)amino]propanoate] | ≥ 80% | ≥ 80% |  | ≥ 80% |  | 
11 | COc1ccnc(C(=O)N[C@@H](C)C(=O)ON(C)C(c2cc(C)cc(C)c2)c2cc(C)cc(C)c2)c1O [I.x.01, [bis(3,5-dimethylphenyl)methyl-methyl-amino] (2S)-2-[(3-hydroxy-4-methoxy-pyridine-2-carbonyl)amino]propanoate] | ≥ 80% | ≥ 80% |  |  |  | ≥ 80%
